From patent US20110183336A1, “Method to Predict Responsiveness of Breast Cancer to Polyamine-Type Chemotherapy” (THE REGENTS OF THE UNIVERSITY OF CALIFORNIA, priority 2007, published 2011)

Assays:
Format in all cases: cell-based
A549 = assay: MTT assay, percent cell survival; settings: Homo sapiens, A549, 144 h, six days after drug treatment, read-out: ID50(μM) A549
Description: Human brain cancer cell line U251MG-NCI was grown in Dulbecco's Modified Eagle's Medium supplemented with 10% FBS. […] Human prostate cancer cell line PC3 was grown in Dulbecco's Modified Eagles Medium supplemented with 5% FBS. […] The cell cultures were maintained at 37° C. in 5% CO2/95% humidified air.
(§1) Here, a conventional MTT assay was used to evaluate percent cell survival. Exponentially growing monolayer cells were plated in 96-well plates at a density of 500 cells per well and allowed to grow for 24 hours. Serial dilutions of the drugs were added to the wells. Six days after drug treatment, 25 μl of MTT solution (5 mg/ml) was added to each well and incubated for 4 hours at 37° C. Then 100 μl of lysis buffer (20% sodium dodecyl sulfate, 50% DMF, and 0.8% acetic acid, pH 4.7) was added to each well and incubated for an additional 22 hours. A microplate reader (“EMAX”-brand, Molecular Devices, Sunnyvale, Calif.) set at 570 nm was used to determine the optical density of the cultures. Results are expressed as a ratio of the optical density in drug-treated wells to the optical density in wells treated with vehicle only.
(§2) The ID50 is the drug concentration that killed 50% of the cultured cells.

[1] = system: Human breast cancer cell line MCF7; assay: Colony formation (plating efficiency) standard protocol; settings: MCF7, MCF7, 4 hours exposure, colony formation day 15-20, read-out: ED50 (the source's name)
Description: (§3) Cell lines and media: Human breast cancer cell line MCF7 was grown in Richter's Improved Modified Eagle's Medium supplemented with 10% fetal bovine serum (FBS) and 2.2 g/L sodium bicarbonate. Human brain cancer cell line U251MG-NCI was grown in Dulbecco's Modified Eagle's Medium supplemented with 10% FBS. Human lung cancer cell line A549 was grown in Ham's F-12K medium (Fisher Scientific, Itasca, Ill.), supplemented with 10% FBS and 2 mM L-glutamine. Human colon cancer cell line HT29 was cultured in McCoy's 5A medium (Gibco, BRL, Gaithersburg, Md.), supplemented with 10% FBS. Human prostate cancer cell line PC3 was grown in Dulbecco's Modified Eagles Medium supplemented with 5% FBS. The A549 and MCF7 cell lines were cultured in 100 units/mL penicillin and 100 μg/mL streptomycin. HT29 and U251MG cell lines were grown in 50 μg/mL gentamycin. PC3 cell lines were maintained in 1% antibiotic-antimycotic solution (Sigma, St. Louis, Mo.). The cell cultures were maintained at 37° C. in 5% CO2/95% humidified air. All cell cultures are available from the American Type Culture Collection, Rockville, Md.
(§4) A standardized protocol was used to evaluate these test cultures:
(§5) Day 1: Ten standard culture flasks for each drug to be tested were plated with 5×10^5 cells of a given type in 5 mL of media and allowed to incubate for 16-24 hours at 37° C.
(§6) Day 2: Fresh stocks of the compounds to be evaluated are prepared. For each drug, two of the ten culture flasks prepared on Day 1 are used as controls. The control flasks are treated with solvent only. Four flasks for each compound are then treated with serially-diluted concentrations of the compound. The remaining flasks are left untouched. The cells are incubated for 4 hours at 37° C.
(§7) After 4 hours the control flasks are counted (2 counts for each flask) and the cells per mL calculated based on the average of the control counts. The cells are then re-plated into six 60 mm dishes for each flask from dilutions based on the cells/mL of the control. (In the various test runs, cell concentrations ranged from approximately 50 to approximately 800 cells per mL.)
(§8) Day 15-20: The cells are monitored for colony formation. When visible, the cells are stained with 0.5% crystal violet (in 95% EtOH) and counted. The plating efficiency for each dish is then calculated. The plating efficiencies of the six dishes for each flask are averaged and the standard deviation is calculated. The fraction of cell survival at each concentration is determined based on the controls.

MCF7 = assay: MTT assay, percent cell survival; settings: Homo sapiens, MCF7, 144 h, six days after drug treatment, read-out: ID50(μM) MCF7
Description: as §3, §1, §2

HT-29 = assay: MTT assay, percent cell survival; settings: Homo sapiens, HT-29, 144 h, HT-29, MTT, six days after drug treatment; read-out: ID50(μM) HT-29
Description: as §3, §1, §2

U251MG NCl = assay: MTT assay, percent cell survival; settings: Homo sapiens, U-251, 144 h, six days after drug treatment, read-out: ID50(μM) U251MG NCl
Description: as §3, §1, §2

PC-3 = assay: MTT assay, percent cell survival; settings: Homo sapiens, PC-3, 144 h, PC-3, MTT, six days after drug treatment; read-out: ID50(μM) PC-3
Description: as §3, §1, §2

[2] = system: human brain cancer cell line U251MG-NCI; assay: Colony formation (plating efficiency) standard protocol
Description: as §3, §4, §5, §6, §7, §8

| Compound | EC50 [1] | IC50 (MCF7) | IC50 (HT-29) | IC50 (U251MG NCl) | other results |
| --- | --- | --- | --- | --- | --- |
| CCNCCCNCC1CCC1CNCCCNCC (stereo not drawn) [SL-11044] | – | – | – | – | IC50 (A549): 0.3 µM |
| CCNCCCNCC1CCC1CNCCCNCC (stereo not drawn) [SL-11043] | 1.64 µM | 25.5 µM | 1.5 µM | 0.1 µM | – |
| CCNCCCNCC1CC1CNCCCNCC (stereo not drawn) [SL-11037] | – | > 31.2 µM | 1.6 µM | 0.1 µM | IC50 (PC-3): 7.4 µM |
| CCNCCCNCC1CC1CNCCCNCC (stereo not drawn) [SL-11038] | 1.34 µM | – | – | – | – |
| CCNCCCNC1CC1NCCCNCC (stereo not drawn) [SL-11027] | – | – | – | – | inhibition of cell growth ([2]; 10 μM dose): marked inhibition of cell growth |
| CCNCCCNC1CCC1NCCCNCC (stereo not drawn) [SL-11034] | – | – | – | – | inhibition of cell growth ([2]; 40 μM dose): marked inhibition of cell growth |
